Assay results from patent publication US10023570B2 (Array BioPharma, Inc., priority 2015, dated 2018).
Where a name gives a salt, the structure may show the parent alone. Read-outs that look alike come from different tables or passages of the source.

Columns and labels:
[1] = molecular target: N-terminal GST tagged recombinant human RET cytoplasmic domain (aa 658-end), wild type RET kinase (Homo sapiens (Human), UniProt P07949); assay: RET Enzyme Assay (HTRF KinEASE-TK), wild type RET; type: biochemical; conditions: wild type RET, 1 mM ATP
Chain of N-terminal GST tagged recombinant human RET cytoplasmic domain (aa 658-end), wild type RET kinase (P07949 658-1114): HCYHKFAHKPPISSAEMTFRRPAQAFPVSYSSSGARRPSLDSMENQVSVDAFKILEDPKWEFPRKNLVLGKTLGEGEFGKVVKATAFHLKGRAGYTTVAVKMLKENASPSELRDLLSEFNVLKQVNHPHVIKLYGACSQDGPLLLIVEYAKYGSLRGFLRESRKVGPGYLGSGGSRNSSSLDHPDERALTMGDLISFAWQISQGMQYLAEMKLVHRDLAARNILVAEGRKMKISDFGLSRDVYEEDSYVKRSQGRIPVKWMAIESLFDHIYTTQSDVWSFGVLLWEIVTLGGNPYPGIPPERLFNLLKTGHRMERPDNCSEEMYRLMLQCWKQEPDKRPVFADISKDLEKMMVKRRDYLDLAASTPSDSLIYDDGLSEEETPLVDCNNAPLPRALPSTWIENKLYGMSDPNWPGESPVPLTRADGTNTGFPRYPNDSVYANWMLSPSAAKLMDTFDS

[2] = molecular target: Kif5b-RET fusion protein in HEK-293 cells (Homo sapiens, UniProt P07949); assay: cell-based
Chain of Kif5b-RET fusion protein in HEK-293 cells (P07949 29-1114 limits assumed): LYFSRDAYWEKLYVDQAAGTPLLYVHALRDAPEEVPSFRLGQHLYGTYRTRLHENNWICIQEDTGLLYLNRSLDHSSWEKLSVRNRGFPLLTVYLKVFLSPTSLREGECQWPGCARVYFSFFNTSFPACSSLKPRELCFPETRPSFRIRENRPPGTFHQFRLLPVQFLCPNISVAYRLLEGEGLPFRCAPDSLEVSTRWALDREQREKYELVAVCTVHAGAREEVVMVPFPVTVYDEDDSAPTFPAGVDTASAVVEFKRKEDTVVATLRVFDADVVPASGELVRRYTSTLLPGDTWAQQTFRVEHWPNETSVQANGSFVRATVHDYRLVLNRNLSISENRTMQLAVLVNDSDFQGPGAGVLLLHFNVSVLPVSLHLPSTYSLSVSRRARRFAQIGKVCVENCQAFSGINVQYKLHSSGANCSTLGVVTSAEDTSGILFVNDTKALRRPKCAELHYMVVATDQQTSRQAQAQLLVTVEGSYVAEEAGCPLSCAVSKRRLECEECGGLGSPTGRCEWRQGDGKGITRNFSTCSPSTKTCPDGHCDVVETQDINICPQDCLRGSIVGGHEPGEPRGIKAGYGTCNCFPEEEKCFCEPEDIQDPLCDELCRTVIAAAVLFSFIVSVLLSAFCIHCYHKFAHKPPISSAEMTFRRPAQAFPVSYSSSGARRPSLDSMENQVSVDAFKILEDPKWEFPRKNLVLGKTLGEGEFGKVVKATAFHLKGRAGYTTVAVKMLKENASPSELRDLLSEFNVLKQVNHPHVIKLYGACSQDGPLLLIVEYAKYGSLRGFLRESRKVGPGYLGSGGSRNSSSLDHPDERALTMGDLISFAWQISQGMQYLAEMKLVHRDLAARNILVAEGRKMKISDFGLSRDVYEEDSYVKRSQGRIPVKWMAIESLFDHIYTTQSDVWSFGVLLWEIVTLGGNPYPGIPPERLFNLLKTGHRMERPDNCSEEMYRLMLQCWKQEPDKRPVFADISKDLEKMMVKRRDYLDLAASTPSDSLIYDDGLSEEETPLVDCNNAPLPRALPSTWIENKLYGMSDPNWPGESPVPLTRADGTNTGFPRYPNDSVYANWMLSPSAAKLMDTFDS

[3] = molecular target: human KDR protein in HEK-293 cells (Homo sapiens (Human), UniProt P35968); assay: KDR Cell Assay (phospho-KDR in HEK-293 cells expressing inducible KDR); type: cell-based; conditions: pKDR Cell HEK 10% FBS IC50, HEK-293 cells expressing inducible KDR, VEGF stimulated
Chain of human KDR protein in HEK-293 cells (P35968 20-1356): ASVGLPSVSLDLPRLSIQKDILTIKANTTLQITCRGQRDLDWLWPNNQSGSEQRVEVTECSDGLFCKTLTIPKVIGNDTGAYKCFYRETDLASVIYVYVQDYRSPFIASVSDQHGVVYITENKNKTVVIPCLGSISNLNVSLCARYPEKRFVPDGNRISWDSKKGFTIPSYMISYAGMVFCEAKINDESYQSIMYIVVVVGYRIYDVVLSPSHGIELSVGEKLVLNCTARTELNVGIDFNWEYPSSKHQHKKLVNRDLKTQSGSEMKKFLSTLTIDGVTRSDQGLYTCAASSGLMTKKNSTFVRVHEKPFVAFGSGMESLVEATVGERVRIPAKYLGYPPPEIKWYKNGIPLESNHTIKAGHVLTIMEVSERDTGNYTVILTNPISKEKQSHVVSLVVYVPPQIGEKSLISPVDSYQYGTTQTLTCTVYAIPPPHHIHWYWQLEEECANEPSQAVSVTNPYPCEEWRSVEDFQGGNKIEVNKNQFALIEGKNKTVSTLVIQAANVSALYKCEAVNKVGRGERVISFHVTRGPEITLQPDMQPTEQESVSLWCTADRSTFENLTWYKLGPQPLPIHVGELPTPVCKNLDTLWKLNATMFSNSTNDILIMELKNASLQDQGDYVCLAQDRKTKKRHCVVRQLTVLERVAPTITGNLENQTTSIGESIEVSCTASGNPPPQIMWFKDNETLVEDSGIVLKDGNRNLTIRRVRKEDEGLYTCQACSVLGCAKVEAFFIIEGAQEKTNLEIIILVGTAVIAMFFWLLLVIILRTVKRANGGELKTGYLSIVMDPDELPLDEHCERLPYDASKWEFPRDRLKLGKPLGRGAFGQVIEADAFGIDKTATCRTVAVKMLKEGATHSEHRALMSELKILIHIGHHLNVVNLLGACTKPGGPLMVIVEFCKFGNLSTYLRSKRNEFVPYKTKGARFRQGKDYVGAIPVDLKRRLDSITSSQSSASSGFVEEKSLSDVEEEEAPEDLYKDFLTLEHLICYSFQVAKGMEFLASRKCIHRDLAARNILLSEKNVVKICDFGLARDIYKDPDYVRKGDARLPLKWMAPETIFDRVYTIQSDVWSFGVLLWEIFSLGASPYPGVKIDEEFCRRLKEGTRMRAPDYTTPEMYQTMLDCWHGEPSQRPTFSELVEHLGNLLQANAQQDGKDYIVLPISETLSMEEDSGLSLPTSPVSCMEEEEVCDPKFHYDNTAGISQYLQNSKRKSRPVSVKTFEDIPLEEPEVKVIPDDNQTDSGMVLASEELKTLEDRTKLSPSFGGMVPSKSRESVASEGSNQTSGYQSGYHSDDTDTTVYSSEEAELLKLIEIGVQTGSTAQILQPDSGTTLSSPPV
Procedure, shortened: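 HEK-293 cells with inducible human KDR were treated with compound for 1 h in DMEM (0.25% DMSO final), then lysed. Phospho-KDR was quantified by Meso Scale immunoassay, expressed as percent of control, and IC50 taken where a 4-parameter logistic fit crossed 50 POC.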

[4] = HEK-293 cells expressing Kif5b-RET, phospho-RET(Tyr1062), read-out: KIF5B-RET pTYR1062 Cell IC50
[5] = HEK-293 cells expressing Kif5b-RET, read-out: KIF5B-RET pTYR1062 Cell IC50

| Compound | IC50 [1] [nM] | IC50 [2, 4] [nM] | IC50 ([3]; 10% FBS) [nM] | IC50 ([2]; read-out: KIF5B-RET pTYR1062 Cell IC50) [nM] | IC50 [2, 5] [nM] | IC50 [3] [nM] | IC50 [2] [nM] |
| --- | --- | --- | --- | --- | --- | --- | --- |
| CCC1(C(=O)NCC(C)(C)O)CCN(c2ccc(-c3cc(-c4cnn(C)c4)cn4ncc(C#N)c34)cn2)CC1 [Example 258, 1-(5-(3-cyano-6-(1-methyl-1H-pyrazol-4-yl)pyrazolo[1,5-a]pyridin-4-yl)pyridin-2-yl)-4-ethyl-N-(2-hydroxy-2-methylpropyl) piperidine-4-carboxamide] | 12.5 | 10 | 505 |  |  |  |  |
| CC(C)CC(=O)N1CCN(c2ccc(-c3cc(-c4cnn(C(F)F)c4)cn4ncc(C#N)c34)cn2)CC1 [Example 267, 6-(1-(difluoromethyl)-1H-pyrazol-4-yl)-4-(6-(4-(3-methylbutanoyl)piperazin-1-yl)pyridin-3-yl)pyrazolo[1,5-a]pyridine-3-carbonitrile] | 11 | 13.6 | 2760 |  |  |  |  |
| Cn1cc(-c2cc(-c3ccc(N4CCNCC4)nc3)c3c(Cl)cnn3c2)cn1 [Example 326, 3-chloro-6-(1-methyl-1H-pyrazol-4-yl)-4-(6-(piperazin-1-yl)pyridine-3-yl)pyrazolo[1,5-a]pyridine dihydrochloride] | 75 |  | 579 | 70.4 |  |  |  |
| CN(C)CC(=O)N1CCN(c2ccc(-c3cc(-c4cnn(C)c4)cn4ncc(Cl)c34)cn2)CC1 [Example 328, 1-(4-(5-(3-chloro-6-(1-methyl-1H-pyrazol-4-yl)pyrazolo[1,5-a]pyridin-4-yl)pyridin-2-yl)piperazin-1-yl)-2-(dimethylamino)ethanone] | 62.1 | 60.4 | 1370 |  |  |  |  |
| COCC(=O)N1CCN(c2ccc(-c3cc(-c4cnn(C)c4)cn4ncc(Cl)c34)cn2)CC1 [Example 329, 1-(4-(5-(3-chloro-6-(1-methyl-1H-pyrazol-4-yl)pyrazolo[1,5-a]pyridin-4-yl)pyridin-2-yl)piperazin-1-yl)-2-methoxyethanone] | 23.2 | 45.6 | 381 |  |  |  |  |
| CC(=O)N1CCN(c2ccc(-c3cc(-c4cnn(C)c4)cn4ncc(Cl)c34)cn2)CC1 [Example 330, 1-(4-(5-(3-chloro-6-(1-methyl-1H-pyrazol-4-yl)pyrazolo[1,5-a]pyridin-4-yl)pyridin-2-yl)piperazin-1-yl)ethanone] | 38.3 | 84 | 566 |  |  |  |  |
| Cn1cc(-c2cc(-c3ccc(N4CCN(C(=O)CC(C)(C)C)CC4)nc3)c3c(Cl)cnn3c2)cn1 [Example 331, 1-(4-(5-(3-chloro-6-(1-methyl-1H-pyrazol-4-yl)pyrazolo[1,5-a]pyridin-4-yl)pyridin-2-yl)piperazin-1-yl)-3,3-dimethylbutan-1-one] | 31.1 | 148 | 2350 |  |  |  |  |
| Cn1cc(-c2cc(-c3ccc(N4CCN(S(C)(=O)=O)CC4)nc3)c3c(Cl)cnn3c2)cn1 [Example 332, 3-chloro-6-(1-methyl-1H-pyrazol-4-yl)-4-(6-(4-(methylsulfonyl)piperazin-1-yl)pyridin-3-yl)pyrazolo[1,5-a]pyridine] | 16.2 | 47 | 207 |  |  |  |  |
| CN1CCN(c2ccc(-c3cc(-c4cnn(C)c4)cn4ncc(Cl)c34)cn2)CC1 [Example 333, 3-chloro-6-(1-methyl-1H-pyrazol-4-yl)-4-(6-(4-methylpiperazin-1-yl)pyridin-3-yl)pyrazolo[1,5-a]pyridine] | 63.7 | 156 | 2390 |  |  |  |  |
| COCC(C)(C)C(=O)N1CCN(c2ccc(-c3cc(-c4cnn(C)c4)cn4ncc(C#N)c34)cn2)CC1 [Example 352, 4-(6-(4-(3-methoxy-2,2-dimethylpropanoyl)piperazin-1-yl)pyridin-3-yl)-6-(1-methyl-1H-pyrazol-4-yl)pyrazolo[1,5-a]pyridine-3-carbonitrile] | 13.9 | 13.7 | 2200 |  |  |  |  |
| COCCN(CCOC)C(=O)N1CCN(c2ccc(-c3cc(-c4cnn(C)c4)cn4ncc(C#N)c34)cn2)CC1 [Example 385, 4-(5-(3-cyano-6-(1-methyl-1H-pyrazol-4-yl)pyrazolo[1,5-a]pyridin-4-yl)pyridine-2-yl)-N,N-bis(2-methoxyethyl)piperazine-1-carboxamide] | 27.1 |  |  |  | 47.3 | 1970 |  |
| CC(C)OCCN1CCN(c2ccc(-c3cc(-c4cnn(C)c4)cn4ncc(C#N)c34)cn2)CC1 [Example 392, 4-(6-(4-(2-isopropoxyethyl)piperazin-1-yl)pyridin-3-yl)-6-(1-methyl-1H-pyrazol-4-yl)pyrazolo[1,5-a]pyridin-3-carbonitrile] | 8.5 |  |  |  | 3.6 | 765 |  |
| Cn1cc(-c2cc(-c3ccc(N4CCN(CCOC(F)(F)F)CC4)nc3)c3c(C#N)cnn3c2)cn1 [Example 398, 6-(1-methyl-1H-pyrazol-4-yl)-4-(6-(4-(2-(trifluoromethoxy)ethyl)piperazin-1-yl)pyridin-3-yl)pyrazolo[1,5-a]pyridine-3-carbonitrile] | 11.1 |  |  |  | 18.6 | 1300 |  |
| CO[C@H](C)CN1CCN(c2ccc(-c3cc(-c4cnn(C)c4)cn4ncc(C#N)c34)cn2)CC1 [Example 412, (R)-4-(6-(4-(2-methoxypropyl)piperazin-1-yl)pyridin-3-yl)-6-(1-methyl-1H-pyrazol-4-yl)pyrazolo[1,5-a]pyridine-3-carbonitrile] | 21.6 |  |  |  | 18.2 | 2130 |  |
| COC(CN1CCN(c2ccc(-c3cc(-c4cnn(C)c4)cn4ncc(C#N)c34)cn2)CC1)C(C)C (stereo not drawn) [Example 413, 4-(6-(4-(2-methoxy-3-methylbutyl)piperazin-1-yl)pyridin-3-yl)-6-(1-methyl-1H-pyrazol-4-yl)pyrazolo[1,5-a]pyridine-3-carbonitrile] | 15.6 |  |  |  | 29.1 | 549 |  |
| COC(C)(C)CN1CCN(c2ccc(-c3cc(-c4cnn(C)c4)cn4ncc(C#N)c34)cn2)CC1 [Example 414, 4-(6-(4-(2-methoxy-2-methylpropyl)piperazin-1-yl)pyridin-3-yl)-6-(1-methyl-1H-pyrazol-4-yl)pyrazolo[1,5-a]pyridine-3-carbonitrile] | 41.3 |  |  |  | 41.5 | 2280 |  |
| CO[C@@H](C)CN1CCN(c2ccc(-c3cc(-c4cnn(C)c4)cn4ncc(C#N)c34)cn2)CC1 [Example 415, (S)-4-(6-(4-(2-methoxypropyl)piperazin-1-yl)pyridin-3-yl)-6-(1-methyl-1H-pyrazol-4-yl)pyrazolo[1,5-a]pyridine-3-carbonitrile] | 25.2 |  |  |  | 25.4 | 2030 |  |
| Cn1cc(-c2cc(-c3ccc(N4CCN(CCOC(C)(C)C)CC4)nc3)c3c(C#N)cnn3c2)cn1 [Example 420, 4-(6-(4-(2-(tert-butoxy)ethyl)piperazin-1-yl)pyridine-3-yl)-6-(1-methyl-1H-pyrazol-4-yl)pyrazolo[1,5-a]pyridine-3-carbonitrile] | 10.9 |  |  |  | 5.6 | 792 |  |
| Cc1cccc(CN2CCN(c3ccc(-c4cc(-c5cnn(C)c5)cn5ncc(C#N)c45)cn3)CC2)n1 [Example 433, 6-(1-methyl-1H-pyrazol-4-yl)-4-(6-(4-((6-methylpyridin-2-yl)methyl)piperazin-l-yl)pyridine-3-yl)pyrazolo[1,5-a]pyridine-3-carbonitrile] | 9.7 |  |  |  |  | 1080 | 6 |
| COc1ccccc1CN1CCN(c2ccc(-c3cc(-c4cnn(C)c4)cn4ncc(C#N)c34)cn2)CC1 [Example 451, 4-(6-(4-(2-methoxybenzyl)piperazin-1-yl)pyridin-3-yl)-6-(1-methyl-1H-pyrazol-4-yl)pyrazolo[1,5-a]pyridine-3-carbonitrile] | 4.9 |  |  |  |  | 593 | 4.9 |
| COc1ncccc1CN1CCN(c2ccc(-c3cc(-c4cnn(C)c4)cn4ncc(C#N)c34)cn2)CC1 [Example 452, 4-(6-(4-((2-methoxypyridin-3-yl)methyl)piperazin-1-yl)pyridin-3-yl)-6-(1-methyl-1H-pyrazol-4-yl)pyrazolo[1,5-a]pyridine-3-carbonitrile] | 10 |  |  |  | 12.1 | 844 |  |
| COc1ncc(F)cc1CN1CCN(c2ccc(-c3cc(-c4cnn(C)c4)cn4ncc(C#N)c34)cn2)CC1 [Example 457, 4-(6-(4-((5-fluoro-2-methoxypyridin-3-yl)methyl)piperazin-1-yl)pyridin-3-yl)-6-(1-methyl-1H-pyrazol-4-yl)pyrazolo[1,5-a]pyridine-3-carbonitrile] | 13.1 |  |  |  | 19.5 | 877 |  |
| COc1ccc(CN2CCN(c3ccc(-c4cc(-c5cnn(C)c5)cn5ncc(C#N)c45)cn3)CC2)nc1 [Example 458, 4-(6-(4-((5-methoxypyridin-2-yl)methyl)piperazin-1-yl)pyridin-3-yl)-6-(1-methyl-1H-pyrazol-4-yl)pyrazolo[1,5-a]pyridine-3-carbonitrile] | 6.9 |  |  |  |  | 324 | 2.4 |
| COc1cccnc1CN1CCN(c2ccc(-c3cc(-c4cnn(C)c4)cn4ncc(C#N)c34)cn2)CC1 [Example 463, 4-(6-(4-((3-methoxypyridin-2-yl)methyl)piperazin-1-yl)pyridin-3-yl)-6-(1-methyl-1H-pyrazol-4-yl)pyrazolo[1,5-a]pyridine-3-carbonitrile formate] | 9.7 |  |  |  |  | 678 | 17.7 |
